Consider 23 molecules from ChEMBL document CHEMBL4251610, “Branching tryptamines as a tool to tune their antiproliferative activity” (Eur J Med Chem, 2018).

Common to all, as to assay type: functional, cell-based
One assay has as its system HEK293. Put plainly: Antiproliferative activity against HEK293 cells after 24 hrs by MTT assay. Particulars: Homo sapiens, HEK293, 24 h.
A further assay concerns Jurkat. Put plainly: Antiproliferative activity against human Jurkat cells after 24 hrs by MTT assay. (Tetrazolium assays rely on reduction of a dye to a coloured formazan, in cell work by metabolically active cells.)
A further assay deals with HepG2. Put plainly: Antiproliferative activity against human HepG2 cells after 24 hrs by MTT assay. Particulars: HepG2, 24 h.
In another assay the test system is SH-SY5Y. As to the kind of experiment: Antiproliferative activity against human SH-SY5Y cells after 24 hrs by MTT assay.

A value given as a limit tells only on which side of the number the result lay.

Regarding `Cc1[nH]c2ccc(Br)cc2c1CC(N)c1ccc(F)cc1` (configuration not stated), the half-maximal inhibitory concentration (IC50) (in general, the concentration that inhibits the measured activity by half) amounted to 23.2 µM in the assay with HEK293, 11.8 µM with Jurkat, 9.58 µM with HepG2 and 22.9 µM in the assay on SH-SY5Y.

With `Cc1ccc(C(N)Cc2c(C)[nH]c3ccc(Br)cc23)cc1` (configuration not stated), the IC50 in the assay with HEK293 turned out to be 23.2 µM; in the assay on Jurkat, 9.86 µM; in the assay with HepG2 it was 7.76 µM; with SH-SY5Y, 21.9 µM.

As for `Cc1[nH]c2ccc(-c3ccccc3)cc2c1CCNCc1ccccc1`, the IC50 in the assay on HEK293 amounted to 16.6 µM; with Jurkat it was 1.45 µM; with HepG2 it was 1.49 µM; in the assay on SH-SY5Y it was 5.71 µM.

For `Cc1[nH]c2ccc(-c3ccccc3)cc2c1CC(N)c1ccccc1` (configuration not stated), the half-maximal inhibitory concentration (IC50) was determined as 10.1 µM with HEK293, 1.58 µM with Jurkat, 1.82 µM in the assay on HepG2 and 12.5 µM in the assay with SH-SY5Y.

For the molecule `Cc1[nH]c2ccc(F)cc2c1CC(N)c1ccccc1` (configuration not stated), the IC50 in the assay on HEK293 came to 73.5 µM; in the assay on Jurkat, 15.2 µM; in the assay on HepG2 it was 15.8 µM; in the assay on SH-SY5Y, 59.1 µM.

For the molecule `Cc1c(CC(N)c2ccccc2)c2cc(F)ccc2n1Cc1ccccc1` (configuration not stated), the IC50 with HEK293 was found to be 16.7 µM; with Jurkat it was 14 µM; in the assay on HepG2 it was 13.1 µM; with SH-SY5Y, 15 µM.

`Cc1[nH]c2ccc(F)cc2c1CC(NCc1ccccc1)c1ccccc1` (configuration not stated): the IC50 with HEK293 was 65.2 µM; with Jurkat, 13.8 µM; in the assay on HepG2, 19.4 µM; in the assay with SH-SY5Y, 20.2 µM.

In the case of `Cc1[nH]c2ccc(Br)cc2c1CC(N)c1ccc(Cl)cc1` (configuration not stated), the IC50 in the assay on HEK293 came out at 18.4 µM; with Jurkat it was 7.5 µM; with HepG2, 8.43 µM; in the assay on SH-SY5Y it was 18.6 µM.

Regarding `COc1cc(CNCCc2c(C)[nH]c3ccc(F)cc23)cc2c1OCO2`, the IC50 with HEK293 came out at 17.7 µM; in the assay with Jurkat, 13.9 µM; in the assay on HepG2 it was 16.4 µM; in the assay on SH-SY5Y, 12.5 µM.

`Cc1c(CC(N)c2ccccc2)c2cc(-c3ccccc3)ccc2n1Cc1ccccc1` (configuration not stated): the IC50 came to 16.3 µM in the assay with HEK293, 1.9 µM in the assay with Jurkat, 1.46 µM in the assay on HepG2 and 11.9 µM with SH-SY5Y.

For `Cc1[nH]c2ccccc2c1CC(N)c1ccccc1` (configuration not stated), the IC50 in the assay with HEK293 turned out to be 109 µM; in the assay with Jurkat it was 15.5 µM; with HepG2 it was 16.7 µM; with SH-SY5Y, 117 µM.

As to `COc1ccc(C(N)Cc2c(C)[nH]c3ccc(Br)cc23)cc1` (configuration not stated), the IC50 stood at 18.7 µM in the assay with HEK293, 8.14 µM in the assay with Jurkat, 7.12 µM with HepG2 and 17.8 µM in the assay on SH-SY5Y.

Take `Cc1[nH]c2ccc(Br)cc2c1C[C@H](N)c1ccccc1`: the IC50 is 34.8 µM in the assay with HEK293, 13.8 µM with Jurkat, 10.8 µM in the assay on HepG2 and 25.2 µM in the assay with SH-SY5Y.

On to `Cc1c(CCN)c2cc(-c3ccccc3)ccc2n1Cc1ccccc1`, for which the IC50 in the assay on HEK293 worked out at 15.4 µM; in the assay with Jurkat, 3.82 µM; with HepG2, 1.9 µM; with SH-SY5Y, 12.2 µM.

For `Cc1ccc2[nH]c(C)c(CC(N)c3ccccc3)c2c1` (configuration not stated), the IC50 is 94 µM in the assay on HEK293, 13.2 µM in the assay on Jurkat, 17.1 µM in the assay on HepG2 and 46.1 µM in the assay with SH-SY5Y.

With `Cc1[nH]c2ccc(-c3ccccc3)cc2c1CC(NCc1ccccc1)c1ccccc1` (configuration not stated), the IC50 was 20.1 µM in the assay on HEK293, 8.88 µM in the assay with Jurkat, 45.5 µM in the assay on HepG2 and 20.1 µM in the assay on SH-SY5Y.

Regarding `Cc1[nH]c2ccc(F)cc2c1CCNCc1ccccc1`, the IC50 is 21.4 µM in the assay on HEK293, 12.9 µM in the assay on Jurkat, 14.7 µM in the assay on HepG2 and 25 µM in the assay on SH-SY5Y.

For `Cc1[nH]c2ccc(F)cc2c1CCN`, the IC50 in the assay with HEK293, in the assay with Jurkat, in the assay with HepG2 and in the assay on SH-SY5Y was above 100 µM in each case.

`COc1cc(CNCCc2c(C)[nH]c3ccc(-c4ccccc4)cc23)cc2c1OCO2`: the IC50 with HEK293 is 8.27 µM; in the assay with Jurkat, 1.51 µM; in the assay with HepG2, 1.37 µM; with SH-SY5Y, 9.07 µM.

On to `Cc1[nH]c2ccc(Br)cc2c1CC(N)c1ccccc1` (configuration not stated), for which the IC50 in the assay with HEK293 was determined as 39.4 µM; in the assay with Jurkat, 20.4 µM; in the assay with HepG2 it was 14 µM; in the assay on SH-SY5Y, 42.7 µM.

Take `Cc1[nH]c2ccc(Br)cc2c1CC(N)c1cc(Cl)cc(Cl)c1` (configuration not stated): the IC50 in the assay with HEK293 is 30.9 µM; in the assay on Jurkat, 9.55 µM; in the assay on HepG2, 14.8 µM; in the assay with SH-SY5Y, 27.6 µM.

Turning to `COc1cc(CNC(Cc2c(C)[nH]c3ccc(F)cc23)c2ccccc2)cc2c1OCO2` (configuration not stated), the IC50 stood at 54.9 µM in the assay on HEK293, 14.5 µM with Jurkat, 15.6 µM in the assay on HepG2 and 20 µM with SH-SY5Y.

As to `Cc1c(CCN)c2cc(F)ccc2n1Cc1ccccc1`, the IC50 with HEK293 came out at 17.2 µM; in the assay on Jurkat, 13.5 µM; with HepG2, 19.7 µM; with SH-SY5Y, 13.1 µM.
